Results reported in US20260007681A1, “INDOLE DERIVATIVES AS ESTROGEN RECEPTOR DEGRADERS” (REGENTS OF THE UNIVERSITY OF MICHIGAN, priority 2022, published 2026).
Where two headings read alike, the source gives them in different places.

What was measured:
Format in all cases: cell-based
ER in MCF-7 cells = ER in MCF-7 cells (Homo sapiens (Human), UniProt P03372); assay: In-cell western (ICW) ER degradation assay in MCF-7 cells (Compounds A1-A70); details: for DC50: ER degradation, MCF-7 cells, 16 hrs treatment, 0.02 to 300 nM, read-out: MCF7 ICW DC50; for Dmax: MCF7, read-out: MCF7 ICW Dmax (%)
Description: (§1) ERa degradative activity of compounds can be assessed in MCF-7 and T47D Cells. MCF-7 and T47D cell are seeded and are subsequently treated with the compounds at certain concentrations (e.g., 0.02 to 300 nM). DMSO can be used as vehicle control. Cells are fixed and are blocked with Intercept (PBS) Blocking Buffer (e.g., Li—COR, Odyssey Blocking Buffer), and are stained with ER (e.g., 1:500, Cell signaling) primary antibody for overnight at cold room. Secondary Antibody (e.g., IRDye 800CW Goat anti-Rabbit IgG) and CellTag 700 Stain are added in Intercept (PBS) Blocking Buffer. Finally, cell plate is placed in incubator to dry. Image and signal are captured on Odyssey® DLx Imaging System.
(§2) Day 3: After 16 hrs of compounds treatment, cells were fixed by 4% PFA and permeabilized with elution buffer (0.1% Triton X-100 in 1% PBS Solution). Subsequently, cells were blocked with Intercept (PBS) Blocking Buffer (Li—COR, Odyssey Blocking Buffer), and were stained with ER (1:500, Cell signaling) primary antibody for overnight at cold room.
(§3) Day 4: Remove the buffer, add IRDye 800CW Goat anti-Rabbit IgG Secondary Antibody (1:2000) and CellTag 700 Stain (1:500) in Intercept (PBS) Blocking Buffer. Finally, cell plate is placed in incubator to dry. Image and signal were captured on Odyssey® DLx Imaging System.

ER in T47D cells = ER in T47D cells (Homo sapiens (Human), UniProt P03372); assay: In-cell western (ICW) ER degradation assay in T47D cells (Compounds A1-A70); details: for DC50: ER degradation, 0.02 to 300 nM; for Dmax: T47D, read-out: T47D ICW Dmax (%)
Description: as §1, §2, §3

ER = ER (Homo sapiens (Human), UniProt P03372); assay: In-cell western blot analysis of relative ER percentage (Compounds B1-B278); details: ER degradation, 16 hours, read-out: ICW DC50
Summary of the method: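 Cells seeded at 40,000 or 10,000 cells/well and treated with compound (final 0.5% DMSO) for 16 h, then formaldehyde-fixed, Triton-permeabilized and co-stained for ER and GAPDH with 680/800 secondaries; LI-COR plate read. ER level expressed relative to untreated/DMSO-treated wells set at 100%.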

[1] = Cell growth assay (WST-8) (Compounds B1-B278); details: 96 h; T47D cell line; WST-8, 4 days; read-out: Cell Growth Inhibition in T47D cell line IC50
Summary of the method: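 Cells seeded at 1500/well overnight, treated one day later with compound doses for 4 days, then 10% WST-8 added for 2.5 h at 37° C in CO2. Absorbance at 450 nm, expressed relative to vehicle control over three independent repeats.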

ER in T47D cells, sequence (P03372 whole entry): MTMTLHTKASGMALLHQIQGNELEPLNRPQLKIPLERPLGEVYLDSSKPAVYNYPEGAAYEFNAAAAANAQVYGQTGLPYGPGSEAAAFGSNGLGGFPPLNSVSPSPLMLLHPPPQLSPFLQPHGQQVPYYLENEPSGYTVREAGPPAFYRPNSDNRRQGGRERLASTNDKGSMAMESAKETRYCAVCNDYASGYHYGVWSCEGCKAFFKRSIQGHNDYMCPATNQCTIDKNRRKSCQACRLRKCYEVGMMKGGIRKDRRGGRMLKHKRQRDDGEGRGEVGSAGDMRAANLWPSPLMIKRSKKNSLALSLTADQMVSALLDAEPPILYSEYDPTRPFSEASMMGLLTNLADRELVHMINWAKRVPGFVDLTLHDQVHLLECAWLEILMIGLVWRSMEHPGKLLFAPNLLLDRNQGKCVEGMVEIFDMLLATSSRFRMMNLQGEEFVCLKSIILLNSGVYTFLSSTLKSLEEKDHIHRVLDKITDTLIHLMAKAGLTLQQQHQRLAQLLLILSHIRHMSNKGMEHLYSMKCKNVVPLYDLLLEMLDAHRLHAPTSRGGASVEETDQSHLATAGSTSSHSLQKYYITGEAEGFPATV
ER, sequence (P03372 whole entry): as above
ER in MCF-7 cells, sequence (P03372 whole entry): as above

DC50 (ER) [nM]	Compound	IC50 [1] [nM]	also measured
	COc1cc(N2CCC(CN3CCN4c5cc6c(cc5OC[C@H]4C3)C(=O)N([C@@H]3CCC(=O)NC3=O)C6)CC2)ccc1[C@@H]1c2[nH]c3ccccc3c2C[C@@H](C)N1CC(F)F [Compound A48, (R)-3-((R)-3-((1-(4-((1R,3R)-2-(2,2-difluoroethyl)-3-methyl-2,3,4,9-tetrahydro-1H-pyrido[3,4-b]indol-1-yl)-3-methoxyphenyl)piperidin-4-yl)methyl)-8-oxo-1,2,3,4,4a,5,8,10-octahydro-9H-pyrazino[1′,2′:4,5][1,4]oxazino[2,3-f]isoindol-9-yl)piperidine-2,6-dione]		DC50 (ER in MCF-7 cells): < 1 nM; Dmax (ER in MCF-7 cells): > 75%; DC50 (ER in T47D cells; T47D cells, 16 hrs treatment): < 1 nM; Dmax (ER in T47D cells; maximal ER degradation, T47D cells, 16 hrs treatment): > 75%
	C[C@H]1Cc2c([nH]c3ccccc23)[C@H](c2cnc(N3CCC4(CC3)C[C@@H](CN3CCN5c6cc7c(cc6OC[C@@H]5C3)C(=O)N([C@@H]3CCC(=O)NC3=O)C7)CO4)nc2)N1CC(F)F [Compound A68, (R)-3-((S)-3-(((S)-8-(5-((1S,3S)-2-(2,2-difluoroethyl)-3-methyl-2,3,4,9-tetrahydro-1H-pyrido[3,4-b]indol-1-yl)pyrimidin-2-yl)-1-oxa-8-azaspiro[4.5]decan-3-yl)methyl)-8-oxo-1,2,3,4,4a,5,8,10-octahydro-9H-pyrazino[1′,2′:4,5][1,4]oxazino[2,3-f]isoindol-9-yl)piperidine-2,6-dione]		DC50 (ER in MCF-7 cells): < 1 nM; Dmax (ER in MCF-7 cells): 50 to 75%; DC50 (ER in T47D cells; T47D cells, 16 hrs treatment): < 1 nM; Dmax (ER in T47D cells): > 75%
< 10	C[C@@H]1Cc2c([nH]c3ccccc23)[C@@H](c2cnc(N3CC4(CCC(CN5CCN6c7ccc8c(c7OC[C@H]6C5)CN(C5CCC(=O)NC5=O)C8=O)CC4)C3)nc2)N1CC(F)F (stereo partly drawn) [Compound B183, 3-((R)-7-((2-(5-((1R,3R)-2-(2,2-difluoroethyl)-3-methyl-2,3,4,9-tetrahydro-1H-pyrido[3,4-b]indol-1-yl)pyrimidin-2-yl)-2-azaspiro[3.5]nonan-7-yl)methyl)-1-oxo-1,3,5,5a,6,7,8,9-octahydro-2H-pyrazino[1′,2′:4,5][1,4]oxazino[2,3-e]isoindol-2-yl)piperidine-2,6-dione]	1 to 10	
> 100	C[C@@H]1Cc2c([nH]c3ccccc23)[C@@H](c2cnc(N3CCC4(CC(CN5CCN6c7ccc8c(c7OC[C@H]6C5)CN(C5CCC(=O)NC5=O)C8=O)C4)C3)nc2)N1CC(F)F (stereo partly drawn) [Compound B157, 3-((R)-7-((6-(5-((1R,3R)-2-(2,2-difluoroethyl)-3-methyl-2,3,4,9-tetrahydro-1H-pyrido[3,4-b]indol-1-yl)pyrimidin-2-yl)-6-azaspiro[3.4]octan-2-yl)methyl)-1-oxo-1,3,5,5a,6,7,8,9-octahydro-2H-pyrazino[1′,2′:4,5][1,4]oxazino[2,3-e]isoindol-2-yl)piperidine-2,6-dione]	1 to 10	
10 to 100	COc1cc(N2CCC3(CC2)OCC(CN2CCN4c5cc6c(cc5OC[C@H]4C2)C(=O)N(C2CCC(=O)NC2=O)C6)CO3)ccc1[C@@H]1c2[nH]c3ccccc3c2C[C@@H](C)N1CC(F)F (stereo partly drawn) [Compound B273, 3-((R)-3-((9-(4-((1R,3R)-2-(2,2-difluoroethyl)-3-methyl-2,3,4,9-tetrahydro-1H-pyrido[3,4-b]indol-1-yl)-3-methoxyphenyl)-1,5-dioxa-9-azaspiro [5.5]undecan-3-yl)methyl)-8-oxo-1,2,3,4,4a,5,8,10-octahydro-9H-pyrazino[1′,2′:4,5][1,4]oxazino[2,3-f]isoindol-9-yl)piperidine-2,6-dione]	1 to 10	
10 to 100	C[C@@H]1Cc2c([nH]c3ccccc23)[C@@H](c2cnc(N3CC4(CCC(CN5CCN6c7ccc8c(c7N(C)C[C@@H]6C5)CN(C5CCC(=O)NC5=O)C8=O)CC4)C3)nc2)N1CC(F)F (stereo partly drawn) [Compound B125, 3-((S)-7-((2-(5-((1R,3R)-2-(2,2-difluoroethyl)-3-methyl-2,3,4,9-tetrahydro-1H-pyrido[3,4-b]indol-1-yl)pyrimidin-2-yl)-2-azaspiro[3.5]nonan-7-yl)methyl)-4-methyl-1-oxo-3,4,5,5a,6,7,8,9-octahydropyrazino[1,2-a]pyrrolo[3,4-f]quinoxalin-2(1H)-yl)piperidine-2,6-dione]	> 10	
10 to 100	COc1cc(N2CCC3(CC2)CC(CN2CCN4c5cc6c(cc5OC[C@@H]4C2)C(=O)N(C2CCC(=O)NC2=O)C6)CO3)ccc1[C@@H]1c2[nH]c3ccccc3c2C[C@@H](C)N1CC(F)F (stereo partly drawn) [Compound B142, 3-((4aS)-3-((8-(4-((1R,3R)-2-(2,2-difluoroethyl)-3-methyl-2,3,4,9-tetrahydro-1H-pyrido[3,4-b]indol-1-yl)-3-methoxyphenyl)-1-oxa-8-azaspiro[4.5]decan-3-yl)methyl)-8-oxo-1,2,3,4,4a,5,8,10-octahydro-9H-pyrazino[1′,2′:4,5][1,4]oxazino[2,3-f]isoindol-9-yl)piperidine-2,6-dione]	< 1	
< 10	C[C@@H]1Cc2c([nH]c3ccccc23)[C@@H](c2cnc(N3CCC4(CC3)CC(CN3CCN5c6cc7c(cc6OC[C@@H]5C3)C(=O)N(C3CCC(=O)NC3=O)C7)CO4)nc2)N1CC(F)(F)CO (stereo partly drawn) [Compound B171, 3-((4aS)-3-((8-(5-((1R,3R)-2-(2,2-difluoro-3-hydroxypropyl)-3-methyl-2,3,4,9-tetrahydro-1H-pyrido[3,4-b]indol-1-yl)pyrimidin-2-yl)-1-oxa-8-azaspiro[4.5]dccan-3-yl)methyl)-8-oxo-1,2,3,4,4a,5,8,10-octahydro-9H-pyrazino[1′,2′:4,5][1,4]oxazino[2,3-f]isoindol-9-yl)piperidine-2,6-dione]	> 10	
10 to 100	C[C@@H]1Cc2c([nH]c3ccccc23)[C@@H](c2cnc(N3CCC4(CCC(CN5CCN6c7cc8c(cc7OC[C@@H]6C5)C(=O)N(C5CCC(=O)NC5=O)C8)CC4)CC3)nc2)N1CC(C)(C)F (stereo partly drawn) [Compound B137, 3-((S)-3-((3-(5-((1R,3R)-2-(2-fluoro-2-methylpropyl)-3-methyl-2,3,4,9-tetrahydro-1H-pyrido[3,4-b]indol-1-yl)pyrimidin-2-yl)-3-azaspiro[5.5]undecan-9-yl)methyl)-8-oxo-1,2,3,4,4a,5,8,10-octahydro-9H-pyrazino[1′,2′:4,5][1,4]oxazino[2,3-f]isoindol-9-yl)piperidine-2,6-dione]	> 10	
10 to 100	C[C@@H]1Cc2c([nH]c3ccccc23)[C@@H](c2cnc(N3CCC4(CCC(N5CCN6c7cc8c(cc7OC[C@@H]6C5)C(=O)N(C5CCC(=O)NC5=O)C8)CC4)CC3)nc2)N1CC(F)F (stereo partly drawn) [Compound B138, 3-((S)-3-(3-(5-((1R,3R)-2-(2,2-difluoroethyl)-3-methyl-2,3,4,9-tetrahydro-1H-pyrido[3,4-b]indol-1-yl)pyrimidin-2-yl)-3-azaspiro[5.5]undecan-9-yl)-8-oxo-1,2,3,4,4a,5,8,10-octahydro-9H-pyrazino[1′,2′:4,5][1,4]oxazino[2,3-f]isoindol-9-yl)piperidine-2,6-dione]	1 to 10	

Compound	DC50 (ER) [nM]	IC50 [1] [nM]	also measured
C[C@@H]1Cc2c([nH]c3ccccc23)[C@@H](c2cnc(N3CCC(CN4CCC5(CCOc6c5ccc5c6CN(C6CCC(=O)NC6=O)C5=O)CC4)CC3)nc2)N1CC(F)F (stereo partly drawn) [Compound B127, 3-(1-((1-(5-((1R,3R)-2-(2,2-difluoroethyl)-3-methyl-2,3,4,9-tetrahydro-1H-pyrido[3,4-b]indol-1-yl)pyrimidin-2-yl)piperidin-4-yl)methyl)-7′-oxo-2′,3′,7′,9′-tetrahydro-8′H-spiro[piperidine-4,4′-pyrano[2,3-e]isoindol]-8′-yl)piperidine-2,6-dione]	10 to 100	1 to 10	
COc1cc(N2CC3(CCC(CN4CCC5(CC4)COc4c5ccc5c4CN(C4CCC(=O)NC4=O)C5=O)CC3)C2)ccc1[C@@H]1c2[nH]c3ccccc3c2C[C@@H](C)N1CC(F)F (stereo partly drawn) [Compound B129, 3-(1′-((2-(4-((1R,3R)-2-(2,2-difluoroethyl)-3-methyl-2,3,4,9-tetrahydro-1H-pyrido[3,4-b]indol-1-yl)-3-methoxyphenyl)-2-azaspiro[3.5]nonan-7-yl)methyl)-6-oxo-6,8-dihydro-2H,7H-spiro[furo[2,3-e]isoindole-3,4′-piperidin]-7-yl)piperidine-2,6-dione]	10 to 100	< 1	
